For assay [1], the target named is HPLCP-N (Carica papaya, UniProt Z9RAA0G2V7). The assay can be described thus: photometric, decrease at […] nm, nonlinear regression. In kind it is biochemical. The following applies: 50 mM potassium phosphate pH 6, 1 M NaCl, 22 °C; 5-100 µM substrate; affinity-enriched enzyme.
Assay [2] has as its target N-terminally truncated hydroperoxide lyase from Carica papaya (HPL_(CP-N)) (Carica papaya). The assay can be described thus: SEC; Superdex 200 Increase 10/300; 50 mM potassium phosphate buffer pH 7 with 0.5 M NaCl and 0.1% Triton X-100; calibrated with gel filtration markers of 29,000 to 700,000 Da; calculated mass compared with the predicted monomer mass.

Here are results for three compounds from article PMC9708767, “Synthesis of Polymer Precursor 12-Oxododecenoic Acid Utilizing Recombinant Papaya Hydroperoxide Lyase in an Enzyme Cascade” (Applied Biochemistry and Biotechnology, 2022).

By Km is commonly meant the concentration of substrate that gives half-maximal velocity. The stoichiometry N is a count of units in the complex or per binding partner.

HPLCP-N, sequence (Z9RAA0G2V7 36-496 limits assumed): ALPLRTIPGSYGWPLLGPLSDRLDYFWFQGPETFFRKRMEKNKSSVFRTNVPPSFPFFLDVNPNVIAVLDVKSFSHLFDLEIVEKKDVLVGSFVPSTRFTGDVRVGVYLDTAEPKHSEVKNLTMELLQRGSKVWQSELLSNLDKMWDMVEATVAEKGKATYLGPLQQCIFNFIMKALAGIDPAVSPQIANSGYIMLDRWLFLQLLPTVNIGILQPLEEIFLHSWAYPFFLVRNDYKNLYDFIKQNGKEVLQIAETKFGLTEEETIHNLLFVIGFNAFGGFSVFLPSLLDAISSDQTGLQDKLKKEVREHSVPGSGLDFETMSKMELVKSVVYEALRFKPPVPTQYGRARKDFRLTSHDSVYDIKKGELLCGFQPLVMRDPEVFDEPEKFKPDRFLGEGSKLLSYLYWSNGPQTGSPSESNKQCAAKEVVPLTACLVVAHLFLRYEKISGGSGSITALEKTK

Turning to `CC/C=C\C[C@@H](/C=C/C=C\CCCCCCCC(=O)O)OO` [13S-HPOTE], the Km in assay [1] stood at 150 ± 40 µM.
For the compound “N-terminally truncated hydroperoxide lyase from Carica papaya (HPL_(CP-N)) (enzyme)”, the stoichiometry N in assay [2] was 4.
`CCCCC[C@@H](/C=C/C=C\CCCCCCCC(=O)O)OO` [13S-HPODE]: the Km in assay [1] was determined as 140 ± 30 µM.
